# Results reported in ChEMBL document CHEMBL6120940, “Discovery of N-Aryl-N'-[4-(aryloxy)cyclohexyl]squaramide-Based Inhibitors of LXR/SREBP-1c Signaling Pathway Ameliorating Steatotic Liver Disease: Navigating the Role of SIRT6 Activation” (J Med Chem, 2024).
# Calls of active or inactive are those of the source. No cut-off for these calls is given here.
# Key:
# [1] = tested on: Hepatocyte; test: Inhibition of Srebp-1c level in mouse hepatocyte at 10 uM preincubated with compound for 30 mins followed by T0901317 addition and measured after 12 hrs; assay type: functional, cell-based; conditions: time 12.5 hrs
# [2] = tested on: HepG2; test: Downregulation of SREBP-1c level in human HepG2 cells at 10 uM preincubated for 30 mins followed by OSS128167 addition and measured after 12 hrs; assay type: functional, cell-based; conditions: time 12.5 hrs
# [3] = tested on: HepG2; test: Cytotoxicity against human HepG2 cells at 10 uM measured after 24 hrs by CCK-8 method relative to control; assay type: functional
# [4] = Metabolic stability in mouse liver microsomes at 1 uM measured after 30 mins in presence of NADPH regeneration system by LC-MS/MS analysis; assay type: ADME, Microsome; conditions: read-out: Stability
# [5] = tested on: HepG2; test: Downregulation of SCD gene expression in human HepG2 cells in presence of T0901317 by RNA sequencing analysis; assay type: functional, cell-based
# [6] = tested on: HepG2; test: Downregulation of ACACA mRNA level in human HepG2 cells at 10 uM pretreated with compound for 30 mins followed by […] addition and measured after 12 hrs by RT-qPCR analysis; assay type: functional, cell-based; conditions: time 12.5 hrs
# [7] = target: Voltage-gated inwardly rectifying potassium channel KCNH2 (Homo sapiens, UniProt Q12809); test: Inhibition of human ERG expressing HEK cells by whole-cell patch clamp assay; assay type: toxicity, cell-based
# Voltage-gated inwardly rectifying potassium channel KCNH2, sequence (Q12809 whole entry): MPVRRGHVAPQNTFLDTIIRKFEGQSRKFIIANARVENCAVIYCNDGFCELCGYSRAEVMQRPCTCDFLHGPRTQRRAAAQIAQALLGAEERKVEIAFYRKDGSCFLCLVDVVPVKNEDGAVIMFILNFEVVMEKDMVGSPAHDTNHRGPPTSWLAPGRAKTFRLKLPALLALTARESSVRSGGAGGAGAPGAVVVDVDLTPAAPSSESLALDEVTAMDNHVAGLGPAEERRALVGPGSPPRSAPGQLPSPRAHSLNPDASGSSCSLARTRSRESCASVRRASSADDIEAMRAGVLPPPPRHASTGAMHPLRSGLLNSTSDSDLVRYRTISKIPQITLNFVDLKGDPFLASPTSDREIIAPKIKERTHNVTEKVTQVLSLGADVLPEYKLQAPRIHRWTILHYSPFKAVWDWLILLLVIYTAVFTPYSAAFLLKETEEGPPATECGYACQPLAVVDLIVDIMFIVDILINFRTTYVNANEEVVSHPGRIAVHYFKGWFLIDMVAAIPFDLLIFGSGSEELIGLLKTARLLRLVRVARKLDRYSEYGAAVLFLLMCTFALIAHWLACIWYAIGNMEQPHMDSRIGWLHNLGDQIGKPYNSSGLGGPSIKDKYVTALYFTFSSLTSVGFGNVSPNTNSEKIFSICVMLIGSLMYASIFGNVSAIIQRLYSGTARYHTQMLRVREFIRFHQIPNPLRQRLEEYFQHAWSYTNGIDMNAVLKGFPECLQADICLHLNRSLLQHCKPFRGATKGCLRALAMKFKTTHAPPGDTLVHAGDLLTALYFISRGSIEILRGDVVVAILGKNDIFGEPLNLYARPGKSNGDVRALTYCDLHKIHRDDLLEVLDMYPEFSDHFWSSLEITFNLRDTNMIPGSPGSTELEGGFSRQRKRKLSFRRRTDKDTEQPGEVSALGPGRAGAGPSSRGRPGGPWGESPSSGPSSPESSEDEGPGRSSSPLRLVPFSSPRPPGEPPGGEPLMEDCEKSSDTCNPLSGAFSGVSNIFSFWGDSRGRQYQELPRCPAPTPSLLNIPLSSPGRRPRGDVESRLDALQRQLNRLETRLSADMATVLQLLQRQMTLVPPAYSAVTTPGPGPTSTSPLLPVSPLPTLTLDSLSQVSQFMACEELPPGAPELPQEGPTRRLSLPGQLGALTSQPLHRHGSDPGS
# [8] = tested on: Mus musculus; test: Anti-lipogenic activity against high fat died induced male C57BL/6J mouse obesity model assessed as downregulation of Srebp-1c level at 15 mg/kg, po administered three times per week and measured after 5 weeks by RT-qPCT analysis; assay type: functional, organism-based
# [9] = tested on: HepG2; test: Downregulation of SREBP-1c expression in human HepG2 cells at 5 uM pretreated with compound for 30 mins followed by T0901317 addition and measured after 12 hrs in presence of compound C by immunoblot analysis; assay type: functional, cell-based; conditions: time 12.5 hrs
# [10] = tested on: HepG2; test: Downregulation of ACLY gene expression in human HepG2 cells in presence of T0901317 by RNA sequencing analysis; assay type: functional, cell-based
# [11] = MRT infinity in 16 hrs fasted ICR mouse at 2 mg/kg, iv measured upto 8 hrs by LC-MS/MS analysis; assay type: ADME, organism-based; conditions: in vivo
# [12] = Stability in mouse plasma measured after 120 mins by LC-MS/MS analysis; assay type: ADME, cell-free; conditions: read-out: Stability
# [13] = Terminal half life in 16 hrs fasted ICR mouse at 2 mg/kg, iv measured upto 8 hrs by LC-MS/MS analysis; assay type: ADME, organism-based; conditions: in vivo, read-out: beta t1/2 (converted)
# [14] = tested on: Hepatocyte; test: Effect on Cpt1 gene expression in mouse hepatocyte; assay type: functional, cell-based
# [15] = tested on: Hepatocyte; test: Effect on Acox-2 gene expression in mouse hepatocyte; assay type: functional, cell-based
# [16] = tested on: Mus musculus; test: Anti-lipogenic activity against high fat died induced male C57BL/6J mouse obesity model assessed as downregulation of scd level at 15 mg/kg, po administered three times per week and measured after 5 weeks by RT-qPCT analysis; assay type: functional, organism-based
# [17] = target: T1, Sterol regulatory element-binding protein 1 (Homo sapiens) (UniProt P36956); test: Inhibition of SREBP-1c transcriptional activity in human HepG2 cells expressing LXRalpha/RXRalpha assessed as reduction in SRE-luciferase level pretreated with compound for 30 mins followed by T0901317 addition and measured after 12 hrs by Dual-Glo luciferase assay; assay type: cell-based; conditions: dose 2.5-5 µM, time 12.5 hrs
# T1 sequence (whole entry): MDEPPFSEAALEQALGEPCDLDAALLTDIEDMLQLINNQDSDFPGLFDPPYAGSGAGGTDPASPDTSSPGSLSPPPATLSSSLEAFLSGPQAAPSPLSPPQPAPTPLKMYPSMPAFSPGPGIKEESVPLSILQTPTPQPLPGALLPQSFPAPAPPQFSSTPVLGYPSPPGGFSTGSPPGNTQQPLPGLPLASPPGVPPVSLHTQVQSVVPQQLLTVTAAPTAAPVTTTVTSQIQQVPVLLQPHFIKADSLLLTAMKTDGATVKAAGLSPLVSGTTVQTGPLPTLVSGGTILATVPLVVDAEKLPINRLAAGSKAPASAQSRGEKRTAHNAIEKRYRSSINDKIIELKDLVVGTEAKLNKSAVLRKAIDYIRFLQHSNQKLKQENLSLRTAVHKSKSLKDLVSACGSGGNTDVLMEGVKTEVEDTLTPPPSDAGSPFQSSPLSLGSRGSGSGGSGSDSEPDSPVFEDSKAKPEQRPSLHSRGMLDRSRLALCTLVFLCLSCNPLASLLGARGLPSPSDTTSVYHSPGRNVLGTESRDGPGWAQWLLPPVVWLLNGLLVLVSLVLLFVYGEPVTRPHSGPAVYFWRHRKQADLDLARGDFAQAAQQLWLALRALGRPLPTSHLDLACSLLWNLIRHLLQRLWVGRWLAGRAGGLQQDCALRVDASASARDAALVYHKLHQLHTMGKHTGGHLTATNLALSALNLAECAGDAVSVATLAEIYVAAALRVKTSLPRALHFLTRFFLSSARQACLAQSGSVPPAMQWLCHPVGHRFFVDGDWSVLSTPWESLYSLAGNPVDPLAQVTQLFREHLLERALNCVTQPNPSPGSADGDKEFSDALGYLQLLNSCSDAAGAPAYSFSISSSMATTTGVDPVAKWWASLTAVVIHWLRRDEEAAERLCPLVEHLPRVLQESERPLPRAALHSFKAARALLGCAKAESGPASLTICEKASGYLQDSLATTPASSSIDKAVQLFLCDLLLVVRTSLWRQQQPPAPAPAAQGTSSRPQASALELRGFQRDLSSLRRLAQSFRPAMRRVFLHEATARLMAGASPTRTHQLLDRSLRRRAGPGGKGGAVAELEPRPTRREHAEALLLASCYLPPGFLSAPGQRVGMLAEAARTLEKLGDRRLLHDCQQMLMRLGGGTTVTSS
# [18] = Clearance in 16 hrs fasted ICR mouse at 2 mg/kg, iv measured upto 8 hrs by LC-MS/MS analysis; assay type: ADME, organism-based; conditions: in vivo
# [19] = tested on: HepG2; test: Downregulation of LXRalpha expression level in nucleus of human HepG2 cells at 10 uM preincubated with compound for 30 mins followed by T0901317 addition and measured after 24 hrs by immunoblot analysis; assay type: functional, cell-based; conditions: time 24.5 hrs
# [20] = target: CYP2C9 (Homo sapiens, UniProt P11712); test: Inhibition of CYP2C9 in human liver microsomes at 10 uM using diclofenac as substrate preincubated for 5 mins followed by NADPH generating system addition and measured after 15 mins relative to control; assay type: ADME, Microsome; conditions: probe diclofenac, time 20 min
# CYP2C9, sequence (P11712 whole entry): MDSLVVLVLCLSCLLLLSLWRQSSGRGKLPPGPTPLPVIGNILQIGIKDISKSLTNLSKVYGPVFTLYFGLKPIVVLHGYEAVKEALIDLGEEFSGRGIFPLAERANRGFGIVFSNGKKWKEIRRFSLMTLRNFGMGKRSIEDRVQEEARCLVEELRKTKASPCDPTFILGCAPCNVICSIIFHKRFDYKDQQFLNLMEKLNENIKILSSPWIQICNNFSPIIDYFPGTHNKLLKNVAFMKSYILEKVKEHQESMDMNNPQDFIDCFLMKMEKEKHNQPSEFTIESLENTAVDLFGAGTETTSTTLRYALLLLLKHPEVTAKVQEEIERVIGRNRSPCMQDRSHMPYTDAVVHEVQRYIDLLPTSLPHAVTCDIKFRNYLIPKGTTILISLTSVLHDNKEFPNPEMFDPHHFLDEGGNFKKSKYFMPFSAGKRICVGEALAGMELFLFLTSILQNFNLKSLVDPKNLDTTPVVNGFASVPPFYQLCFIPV
# [21] = tested on: Hepatocyte; test: Downregulation of Cd36 mRNA level in mouse Hepatocyte at 10 uM incubated for 30 mins followed by T0901317 addition by RT-qPCR analysis; assay type: functional, cell-based
# [22] = tested on: Mus musculus; test: Anti-lipogenic activity against high fat died induced male C57BL/6J mouse obesity model assessed as reduction hepatic triglyceride level at 15 mg/kg, po administered three times per week and measured for 5 weeks by H and E staining based analysis; assay type: functional, organism-based
# [23] = target: T1, Sterol regulatory element-binding protein 1 (Homo sapiens); test: Inhibition of SREBP-1c transcriptional activity in HEK293 cells expressing LXRalpha/RXRalpha assessed as reduction in SRE-luciferase level pretreated with compound for 30 mins followed by T0901317 addition and measured after 12 hrs by Dual-Glo luciferase assay; assay type: cell-based; conditions: dose 2.5-5 µM, time 12.5 hrs
compound,measurement,setting,value
COc1ccccc1Nc1c(N[C@H]2CC[C@H](Oc3ccc([N+](=O)[O-])cc3)CC2)c(=O)c1=O,inhibition,[1],Active
same,Activity,[2],inactive
same,Activity,[3],90.3%
same,"remaining at 0.5 h, 1 µM",[4],46.9%
same,Activity,[5],Active
same,Activity,[6],Active
same,IC50,[7],33.2 µM
same,Activity,[8],Active
same,Activity,[9],inactive
same,Activity,[10],Active
same,MRT inf,[11],1.3 h
same,remaining at 2 h,[12],> 100%
same,half-life,[13],1.4 h
same,Activity,[14],inactive
same,Activity,[15],inactive
same,Activity,[16],Active
same,inhibition,[17],Dose-dependent-effect
same,clearance,[18],13.3 mL/min/kg
same,Activity,[19],Active
same,"inhibition at 0.25 h, 10 µM",[20],60.5%
same,Activity,[21],inactive
same,Activity,[22],Active
same,inhibition,[23],Dose-dependent-effect
